Values of other authors, collected in US20050220810A1, “Anti-aging preparation” (Shiseido Company, Ltd., priority 2002, published 2005).

Tested on: vascular endothelial cell HMVEC
Conditions: general statement on positive controls of TSP-1 induction; no test described

bFGF: fibroblast growth factor, a positive control of the TSP-1 inducing substance
induction of cell death in vascular endothelial cells: does not induce cell death
